Data taken from paper PMC10703858, “A simple and green capillary electrophoresis-mass spectrometry method for therapeutic drug monitoring of colistin in clinical plasma samples” (Heliyon, 2023).
Read-outs that look alike come from different tables or passages of the source. Positions of bridges follow the written chain, without caps; N, C: chain ends. Non-standard residues stand in square brackets, D forms with d. Residues, ends and D or L forms follow the SMILES beside them. *: point of attachment. Octanoyl(6-Me) = CCC(C)CCCCC(=O)*; Dab = NCC[CH](N)C(=O)O

Columns and labels:
[1] = system: plasma proteins (especially acidic alpha glycoprotein); conditions: cited from earlier work
[2] = plasma CST concentration in critically ill patient (CE-MS/MS, TDM); type: in vivo, human; conditions: CST A + CST B = 100 %, reference standard was 37.2/62.8 %
Experimental: Clinical plasma samples from two critically ill patients were obtained from the Clinic of Hematology and Transfusiology of St Cyril and Methodius Hospital in Bratislava. After collection, the samples were stored at −80 °C. Before the analysis, the samples were thawed at laboratory temperature, vortexed, and then, 30 μL of the plasma sample was mixed with 30 μL of demineralized water and 120 μL of the IS working solution. […] Following this action, the supernatant was injected directly into the CE system from a CE vial.
The application potential of the validated CE-MS method was tested on the plasma samples obtained from the Clinic of Hematology and Transfusiology of St Cyril and Methodius Hospital in Bratislava. Samples were collected from two critically ill patients treated with multiple intravenous antibiotics and antifungals. The samples were collected before and 30 min after the intravenous (i.v.) administration of the drugs. Patient 1 was treated with meropenem, trimethoprim/sulphamethoxazol, and CST. […] The measured plasma CST concentration of patient 1 before drug administration was 0.82 ± 0.02 μg mL^−1 ([…], n = 3). […]
As previously stated, CST is a heterogeneous substance and, as such, differs not only between producers but also across batches produced by the same manufacturer. […] In clinical plasma samples, a reverse percentage representation of the CST forms was detected. […]

[3] = freeze and thaw stability in plasma QC samples; conditions: n = 5
Experimental: (§1) Quality control (QC) samples were prepared at three concentration levels: i.) low QC: 0.28 μg mL^−1 (CST A sulfate) and 0.47 μg mL^−1 (CST B sulfate); ii.) medium QC: 2.79 μg mL^−1 (CST A sulfate) and 4.71 μg mL^−1 (CST B sulfate); and iii.) high QC: 6.51 μg mL^−1 (CST A sulfate) and 10.99 μg mL^−1 (CST B sulfate). The calibration curve and the QC sample solutions were prepared by mixing 30 μL of the CST sulfate standard at the desired concentration level with 30 μL of demineralized water or plasma and 120 μL of the IS working solution. After being vortexed and left to rest at room temperature for 10 min, the samples were centrifuged at 30,000×g for 10 min. Following this action, supernatant was immediately injected from a CE vial. Every sample underwent three measurements.
(§2) During the validation process, two types of stability were assessed: freeze and thaw stability (three cycles of freezing and thawing at room temperature) and short-term stability (sample kept in an autosampler for 24 h at laboratory temperature). In order to compare the findings from the measurements of QC samples stored according to the guidelines with those of newly prepared QC samples, stability experiments were conducted.

[4] = short-term (autosampler) stability in plasma QC samples; conditions: n = 5
Experimental: as §1, §2

[5] = set-up: method as in PMID 30500757; conditions: used topically and orally; cited from earlier work
[6] = pediatric patients; sum of CST A and CST B; cited from earlier work

CC(C)CCCCC(=O)N[C@@H](CCN)C(=O)N[C@H](C(=O)N[C@@H](CCN)C(=O)N[C@H]1CCNC(=O)[C@H]([C@@H](C)O)NC(=O)[C@H](CCN)NC(=O)[C@H](CCN)NC(=O)[C@H](CC(C)C)NC(=O)[C@@H](CC(C)C)NC(=O)[C@H](CCN)NC1=O)[C@@H](C)O [CST B, colistin B] (HELM PEPTIDE1{[CC(C)CCCCC(=O)[*:2]].[Dab].T.[Dab].[Dab].[Dab].[dL].L.[Dab].[Dab].T}$PEPTIDE1,PEPTIDE1,5:R3-11:R2$$$V2.0)
binding to plasma proteins [1]: 41.7%

CCC(C)CCCCC(=O)NC(CCN)C(=O)NC(C(=O)NC(CCN)C(=O)NC1CCNC(=O)C(C(C)O)NC(=O)C(CCN)NC(=O)C(CCN)NC(=O)C(CC(C)C)NC(=O)C(CC(C)C)NC(=O)C(CCN)NC1=O)C(C)O (stereo not drawn) [CST A, colistin A] ({Octanoyl(6-Me)}-[Dab]T[Dab][Dab][Dab]LL[Dab][Dab]T; lactam 4-C; configuration not given here)
percentage representation of the CST forms in clinical plasma samples [2]: 76.4% | binding to plasma proteins ([1]; especially to acidic alpha glycoprotein): 56.6% | Freeze-to-thaw stability, Found, QC high ([3]; plasma QC high, nominal 6.51 (CST A) / 10.99 (CST B) μg.mL^−1, three freeze-thaw cycles, CE-MS/MS): 6.54 µg/mL | Freeze-to-thaw stability, Found, QC low ([3]; plasma QC low, nominal 0.28 (CST A) / 0.47 (CST B) μg.mL^−1, three cycles of freezing and thawing at room temperature, CE-MS/MS): 0.29 µg/mL | Freeze-to-thaw stability, Found, QC medium ([3]; plasma QC medium, nominal 2.79 (CST A) / 4.71 (CST B) μg.mL^−1, three freeze-thaw cycles, CE-MS/MS): 2.81 µg/mL | Freeze-to-thaw stability, RE, QC low ([3]; relative error in comparison to fresh sample, plasma QC low, three freeze-thaw cycles): 2.7% | Freeze-to-thaw stability, RE, QC medium ([3]; relative error in comparison to fresh sample, plasma QC medium, three freeze-thaw cycles): 1.7% | Autosampler stability, Found, QC high ([4]; plasma QC high, nominal 6.51 (CST A) / 10.99 (CST B) μg.mL^−1, autosampler 24 h at laboratory temperature, CE-MS/MS): 6.76 µg/mL | Autosampler stability, Found, QC low ([4]; plasma QC low, nominal 0.28 (CST A) / 0.47 (CST B) μg.mL^−1, kept in autosampler 24 h at laboratory temperature, pooled human plasma, CE-MS/MS): 0.29 µg/mL | Autosampler stability, Found, QC medium ([4]; plasma QC medium, nominal 2.79 (CST A) / 4.71 (CST B) μg.mL^−1, autosampler 24 h at laboratory temperature, CE-MS/MS): 2.94 µg/mL | Autosampler stability, RE, QC high ([4]; relative error in comparison to fresh sample, plasma QC high, autosampler 24 h at laboratory temperature): 2.3% | Autosampler stability, RE, QC medium ([4]; relative error in comparison to fresh sample, plasma QC medium, autosampler 24 h at laboratory temperature): 3.3%

colistin sulfate
absorption from the gastrointestinal tract [5]: minimal

Colistin [CST]
mean steady-state concentration of CST in plasma, median [6]: 2.92 µg/mL
